Data published in US9555038B2, “Heterocycle-substituted tetracyclic compounds and methods of use thereof for the treatment of viral diseases” (Merck Sharp & Dohme Corp., priority 2013, dated 2017).
Where two headings read alike, the source gives them in different places.

Experiments:
HCV replicon 1AQ30D = assay: Cell-based HCV Replicon Assay B, replicon 1AQ30D
Outline: (§1)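 Replicon cells seeded in 5% FBS; compounds added 24 h later, then 3 days' incubation. Replicon RNA quantified by real-time RT-PCR with genotype-specific primers/probes (NS5B amplicon for 1b). EC50 = concentration raising CT by 1 over projected baseline.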

HCV replicon 1A = assay: Cell-based HCV Replicon Assay A, replicon 1A
Outline: (§2)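 HCV replicon RNA levels are measured by multiplexed real-time RT-PCR, with cyclophilin as internal control, after 3 days of compound exposure. Compounds are tested in 10 serial dilutions starting between 333.3 nM and 1.667 nM, with 5% FBS in the medium.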

HCV replicon 1B = assay: Cell-based HCV Replicon Assay B, replicon 1B
Outline: as §1

HCV replicon 2B = assay: Cell-based HCV Replicon Assay A, replicon 2B
Outline: as §2

HCV replicon 1AY93H = assay: Cell-based HCV Replicon Assay A, replicon 1AY93H
Outline: as §2

[1] = replicon 1AQ30D, read-out: 1A Q30D IC50
[2] = replicon 1AY93H, read-out: 1A Y93H IC50
[3] = Hepatitis C virus, read-out: 1A Q30D IC50 (nM), replicon 1AQ30D
[4] = read-out: 1A Y93H IC50, replicon 1AY93H
[5] = read-out: 1A Q30D IC50, replicon 1AQ30D
[6] = Hepatitis C virus, read-out: 1A Y93H IC50 (nM), replicon 1AY93H
[7] = Hepatitis C virus, read-out: 2B IC50 (nM), replicon 2B

Compound | IC50 (HCV replicon 1AQ30D; [1]) [nM] | IC50 (HCV replicon 1A) [pM] | IC50 (HCV replicon 1B) [pM] | IC50 (HCV replicon 2B; replicon 2B, read-out: 2B IC50) [nM] | IC50 (HCV replicon 1AY93H; [2]) [nM] | IC50 (HCV replicon 1AQ30D; [3]) [nM] | IC50 (HCV replicon 1A; Hepatitis C virus) [pM] | IC50 (HCV replicon 1B; Hepatitis C virus) [pM] | IC50 (HCV replicon 2B; read-out: 2B IC50, replicon 2B) [nM] | IC50 (HCV replicon 1AY93H; [4]) [nM] | IC50 (HCV replicon 1AQ30D; [5]) [nM] | IC50 (HCV replicon 1AY93H; [6]) [nM] | IC50 (HCV replicon 2B; [7]) [nM]
COC(=O)N[C@H](C(=O)N1CCC[C@H]1c1ncc(-c2cc(F)c3c(c2)OC(c2cnc(C4CC4)s2)n2c-3cc3cc(-c4cnc([C@@H]5CC6(C)CC6N5C(=O)[C@@H](NC(=O)OC)C(C)C)[nH]4)ccc32)[nH]1)C(C)C (single isomer, unassigned) [Compound 519] | 0.951 | 3.1 | 2.1 | 0.598 | 0.669 |  |  |  |  |  |  |  | 
COC(=O)N[C@H](C(=O)N1CCC[C@H]1c1ncc(-c2cc(F)c3c(c2)OC(c2cnns2)n2c-3cc3cc(-c4cnc([C@@H]5CCCN5C(=O)[C@@H](NC(=O)OC)C(C)C)[nH]4)ccc32)[nH]1)C(C)C (single isomer, unassigned) [Compound 3] |  |  |  |  |  | 1.05 | 1.5 | 2 | 0.14 | 0.048 |  |  | 
CCCc1ncc(C2Oc3cc(-c4cnc([C@@H]5CCCN5C(=O)[C@@H](NC(=O)OC)C(C)C)[nH]4)cc(F)c3-c3cc4cc(-c5cnc([C@@H]6CCCN6C(=O)C(NC(=O)OC)C6CCOC(C)(C)C6)[nH]5)ccc4n32)s1 (single isomer, unassigned) [Compound 59] |  | 2.6 | 3 |  |  |  |  |  | 0.133 | 0.132 | 0.762 |  | 
COC(=O)NC(C(=O)N1CCC[C@H]1c1ncc(-c2ccc3c(c2)cc2n3C(c3cnc(C4(C)CCCC4)s3)Oc3cc(-c4cnc([C@@H]5CCCN5C(=O)[C@@H](NC(=O)OC)C(C)C)[nH]4)cc(F)c3-2)[nH]1)C1CCOC(C)(C)C1 (single isomer, unassigned) [Compound 447] |  | 2.8 | 3.3 |  |  |  |  |  | 0.059 | 0.259 | 0.607 |  | 
COC(=O)NC(C(=O)N1[C@@H]2C[C@@H]2C[C@H]1c1ncc(-c2ccc3c(c2)cc2n3C(c3cnc(CC(C)C)s3)Oc3cc(-c4cnc([C@@H]5CCCN5C(=O)[C@@H](NC(=O)OC)C(C)C)[nH]4)cc(F)c3-2)[nH]1)C1CCOC(C)(C)C1 (single isomer, unassigned) [Compound 439] | 0.018 | 2.7 | 2.1 | 0.006 | 0.004 |  |  |  |  |  |  |  | 
COC(=O)NC(C(=O)N1[C@@H]2C[C@@H]2C[C@H]1c1ncc(-c2ccc3c(c2)cc2n3C(c3cnc(C4CC4)s3)Oc3cc(-c4cnc([C@@H]5CCCN5C(=O)[C@@H](NC(=O)OC)C(C)C)[nH]4)cc(C)c3-2)[nH]1)C1C[C@@H](C)O[C@@H](C)C1 (single isomer, unassigned) [Compound 217] |  | 3.2 | 5 |  |  | 0.241 |  |  | 0.011 | 0.0085 |  |  | 
COC(=O)NC(C(=O)N1CCC[C@H]1c1ncc(-c2ccc3c(c2)cc2n3C(c3cnc(C(C)(C)O)s3)Oc3cc(-c4cnc([C@@H]5CCCN5C(=O)[C@@H](NC(=O)OC)C(C)C)[nH]4)cc(F)c3-2)[nH]1)C1C[C@@H](C)O[C@@H](C)C1 (single isomer, unassigned) [Compound 74] |  | 3.6 | 4 |  |  | 0.021 |  |  | 0.005 | 0.0053 |  |  | 
COC(=O)NC(C(=O)N1CCCC1c1ncc(-c2cc(F)c3c(c2)OC(c2cnc(C4CCCC4)s2)n2c-3cc3cc(-c4cnc(C5CC6CC6N5C(=O)C(NC(=O)OC)C(C)C)[nH]4)ccc32)[nH]1)C(C)C (single isomer, unassigned) [Compound 319] | 0.051 | 2.5 | 3 | 0.017 | 0.0029 |  |  |  |  |  |  |  | 
COC(=O)N[C@H](C(=O)N1CCC[C@H]1c1ncc(-c2cc(F)c3c(c2)OC(c2cnc(Nc4ccc(F)cc4)s2)n2c-3cc3cc(-c4cnc([C@@H]5CCCN5C(=O)[C@@H](NC(=O)OC)C(C)C)[nH]4)ccc32)[nH]1)C(C)C (single isomer, unassigned) [Compound 534] |  |  |  |  |  | 0.267 | 2.4 | 3 | 0.03 |  |  | 0.094 | 
COC(=O)NC(C(=O)N1CCC[C@H]1c1ncc(-c2ccc3c(c2)cc2n3C(c3cnc(C4CCOCC4)s3)Oc3cc(-c4cnc([C@@H]5CCCN5C(=O)[C@@H](NC(=O)OC)C(C)C)[nH]4)cc(F)c3-2)[nH]1)C1CCOC(C)(C)C1 (single isomer, unassigned) [Compound 448] |  |  |  |  |  |  | 4.7 | 6 | 0.011 | 0.013 | 0.113 |  | 
COC(=O)NC(C(=O)N1[C@@H]2C[C@@H]2C[C@H]1c1ncc(-c2ccc3c(c2)cc2n3C(c3cnc(C4(C)CC4)s3)Oc3cc(-c4cnc([C@@H]5CCCN5C(=O)[C@@H](NC(=O)OC)C(C)C)[nH]4)cc(F)c3-2)[nH]1)C1CCOC(C)(C)C1 (single isomer, unassigned) [Compound 467] |  | 3 | 3.4 |  |  |  |  |  | 0.158 | 0.209 | 1.4 |  | 
CCCc1ncc(C2Oc3cc(-c4cnc([C@@H]5CCCN5C(=O)[C@@H](NC(=O)OC)C(C)C)[nH]4)cc(F)c3-c3cc4cc(-c5cnc([C@@H]6C[C@H]7C[C@H]7N6C(=O)C(NC(=O)OC)C6CCOC(C)(C)C6)[nH]5)ccc4n32)s1 (single isomer, unassigned) [Compound 106] |  | 3.2 | 5 |  |  |  |  |  | 0.067 | 0.0336 | 0.284 |  | 
COC(=O)N[C@H](C(=O)N1CCC[C@H]1c1ncc(-c2cc(F)c3c(c2)OC(c2cnc(CC(C)(C)C)s2)n2c-3cc3cc(-c4cnc([C@@H]5CCCN5C(=O)[C@@H](NC(=O)OC)C(C)C)[nH]4)ccc32)[nH]1)C(C)C (single isomer, unassigned) [Compound 522] | 0.163 | 1.4 | 1 | 0.015 | 0.011 |  |  |  |  |  |  |  | 
CCc1ncc(C2Oc3cc(-c4cnc([C@@H]5CCCN5C(=O)[C@@H](NC(=O)OC)C(C)C)[nH]4)cc(F)c3-c3cc4cc(-c5cnc([C@@H]6C[C@H]7C[C@H]7N6C(=O)C(NC(=O)OC)C6CCOC(C)(C)C6)[nH]5)ccc4n32)s1 (single isomer, unassigned) [Compound 93] |  | 3.6 | 3 |  |  |  |  |  | 0.069 | 0.0426 | 0.631 |  | 
COC(=O)NC(C(=O)N1CCC[C@H]1c1ncc(-c2ccc3c(c2)cc2n3C(c3cnc(C4CC4)s3)Oc3cc(-c4cnc([C@@H]5CCCN5C(=O)[C@@H](NC(=O)OC)C(C)C)[nH]4)cc(C)c3-2)[nH]1)C1CCOC(C)(C)C1 (single isomer, unassigned) [Compound 214] |  |  |  |  |  | 0.44 | 2.7 | 8 |  |  |  | 0.02 | 0.004
COC(=O)N[C@H](C(=O)N1CCC[C@H]1c1ncc(-c2cc(F)c3c(c2)OC(c2cnc(-c4ccc(OC)cc4)s2)n2c-3cc3cc(-c4cnc([C@@H]5CCCN5C(=O)[C@@H](NC(=O)OC)C(C)C)[nH]4)ccc32)[nH]1)C(C)C (single isomer, unassigned) [Compound 45] |  |  |  |  |  | 0.072 | 1.8 | 1 | 0.011 | 0.006 |  |  | 
CCCc1ncc(C2Oc3cc(-c4cnc([C@@H]5CCCN5C(=O)[C@@H](NC(=O)OC)C(C)C)[nH]4)cc(F)c3-c3cc4cc(-c5cnc([C@@H]6CCCN6C(=O)C(NC(=O)OC)C6CCOC(C)(C)C6)[nH]5)ccc4n32)s1 (single isomer, unassigned) [Compound 61] |  | 3.3 | 1.7 |  |  |  |  |  | 0.006 | 0.012 | 0.07 |  | 
COC(=O)N[C@H](C(=O)N1CCC[C@H]1c1ncc(-c2cc(F)c3c(c2)OC(c2cnc(C4CCCC4)s2)n2c-3cc3cc(-c4cnc([C@@H]5CCCN5C(=O)[C@@H](NC(=O)OC)C(C)C)[nH]4)ccc32)[nH]1)C(C)C (single isomer, unassigned) [Compound 25] |  |  |  |  |  | 0.07 | 2.5 | 1 | 0.014 | 0.0025 |  |  | 
CCCc1ncc(C2Oc3cc(-c4cnc([C@@H]5CCCN5C(=O)[C@@H](NC(=O)OC)C(C)C)[nH]4)cc(C)c3-c3cc4cc(-c5cnc([C@@H]6C[C@H]7C[C@H]7N6C(=O)[C@@H](NC(=O)OC)C(C)C)[nH]5)ccc4n32)s1 (single isomer, unassigned) [Compound 206] |  | 7 |  |  |  | 0.83 |  | 4 | 0.03 | 0.023 |  |  | 
COC(=O)N[C@H](C(=O)N1CCC[C@H]1c1ncc(-c2cc(F)c3c(c2)OC(c2nc4c(s2)CCCC4)n2c-3cc3cc(-c4cnc([C@@H]5CCCN5C(=O)[C@@H](NC(=O)OC)C(C)C)[nH]4)ccc32)[nH]1)C(C)C (single isomer, unassigned) [Compound 87] |  |  |  |  |  |  | 2.5 | 864 |  |  | 0.068 | 0.0714 | 0.003
CCc1ncc(C2Oc3cc(-c4cnc([C@@H]5CCCN5C(=O)[C@@H](NC(=O)OC)C(C)C)[nH]4)cc(F)c3-c3cc4cc(-c5cnc([C@@H]6C[C@H]7C[C@H]7N6C(=O)[C@@H](NC(=O)OC)C6C[C@@H](C)O[C@@H](C)C6)[nH]5)ccc4n32)s1 (single isomer, unassigned) [Compound 96] |  |  |  |  |  |  | 2.4 | 3 | 0.006 | 0.0037 | 0.02 |  | 
COC(=O)N[C@H](C(=O)N1CCC[C@H]1c1nc(-c2cc(F)c3c(c2)OC(c2cnc(-c4cnccn4)s2)n2c-3cc3cc(-c4cnc([C@@H]5CCCN5C(=O)[C@@H](NC(=O)OC)C(C)C)[nH]4)ccc32)c[nH]1)C(C)C (some centres unmarked) [Compound 424] |  |  |  |  |  | 0.058 | 1.9 | 694 |  |  |  | 0.0554 | 0.003
